Measurements from ChEMBL document CHEMBL2086337, “Inhibition of monoamine oxidase by 8-phenoxymethylcaffeine derivatives” (Bioorg Med Chem, 2012).

Legend:
[1] = target: T1, Amine oxidase [flavin-containing] A (Homo sapiens, UniProt P21397); test: Inhibition of human recombinant MAO-A expressed in baculovirus infected insect cells using kynuramine as substrate after 20 mins by fluorescence spectrophotometry
T1 sequence (P21397 whole entry): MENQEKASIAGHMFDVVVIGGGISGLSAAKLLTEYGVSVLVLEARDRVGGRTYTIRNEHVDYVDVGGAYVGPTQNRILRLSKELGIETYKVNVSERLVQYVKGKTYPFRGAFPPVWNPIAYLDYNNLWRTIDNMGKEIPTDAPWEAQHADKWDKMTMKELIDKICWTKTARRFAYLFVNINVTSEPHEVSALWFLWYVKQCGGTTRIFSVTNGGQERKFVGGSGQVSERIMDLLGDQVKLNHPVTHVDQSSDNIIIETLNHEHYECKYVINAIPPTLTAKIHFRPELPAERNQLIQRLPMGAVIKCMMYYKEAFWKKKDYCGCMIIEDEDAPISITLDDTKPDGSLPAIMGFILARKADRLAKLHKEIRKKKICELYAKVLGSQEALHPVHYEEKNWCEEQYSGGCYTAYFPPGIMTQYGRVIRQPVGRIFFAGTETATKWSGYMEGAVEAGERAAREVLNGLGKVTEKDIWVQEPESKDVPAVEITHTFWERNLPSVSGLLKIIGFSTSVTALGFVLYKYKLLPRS

[2] = target: T2, Amine oxidase [flavin-containing] B (Homo sapiens, UniProt P27338); test: Inhibition of human recombinant MAO-B expressed in baculovirus infected insect cells using kynuramine as substrate after 20 mins by fluorescence spectrophotometry
T2 sequence (P27338 whole entry): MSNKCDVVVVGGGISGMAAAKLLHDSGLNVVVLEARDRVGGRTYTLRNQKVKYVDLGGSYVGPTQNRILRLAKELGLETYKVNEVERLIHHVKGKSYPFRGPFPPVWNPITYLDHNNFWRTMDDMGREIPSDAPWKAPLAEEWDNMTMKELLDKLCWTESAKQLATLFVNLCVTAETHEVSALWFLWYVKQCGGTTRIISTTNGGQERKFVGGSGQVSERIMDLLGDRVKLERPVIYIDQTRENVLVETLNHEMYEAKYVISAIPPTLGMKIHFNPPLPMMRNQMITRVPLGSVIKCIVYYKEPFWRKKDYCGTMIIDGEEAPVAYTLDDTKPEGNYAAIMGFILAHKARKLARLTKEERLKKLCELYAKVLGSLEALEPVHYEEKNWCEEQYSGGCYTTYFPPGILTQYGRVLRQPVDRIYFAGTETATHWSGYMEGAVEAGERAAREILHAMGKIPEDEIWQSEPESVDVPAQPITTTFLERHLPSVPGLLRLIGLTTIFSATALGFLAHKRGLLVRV

Homo sapiens = species: Homo sapiens; test: Selectivity index, ratio of IC50 for human recombinant MAO-A to IC50 for human recombinant MAO-B
[3] = target: T1, Amine oxidase [flavin-containing] A; test: Inhibition of human recombinant MAO-A expressed in baculovirus infected insect cells using kynuramine as substrate after 20 mins by horseradish peroxidase-coupled assay
[4] = target: T2, Amine oxidase [flavin-containing] B; test: Inhibition of human recombinant MAO-B expressed in baculovirus infected insect cells using kynuramine as substrate after 20 mins by horseradish peroxidase-coupled assay
[5] = target: T1, Amine oxidase [flavin-containing] A; test: Reversible inhibition of human recombinant MAO-A expressed in baculovirus infected insect cells using kynuramine as substrate at 9.7 uM incubated up to 60 mins prior to substrate addition measured after 15 mins by fluorescence spectrophotometry; conditions: 0.25 h
[6] = target: T2, Amine oxidase [flavin-containing] B; test: Reversible inhibition of human recombinant MAO-B expressed in baculovirus infected insect cells using kynuramine as substrate at 9.7 uM incubated up to 60 mins prior to substrate addition measured after 15 mins by fluorescence spectrophotometry; conditions: 0.25 h
[7] = target: T1, Amine oxidase [flavin-containing] A; test: Reversible inhibition of human recombinant MAO-A expressed in baculovirus infected insect cells using kynuramine as substrate at 0.3 uM incubated up to 60 mins prior to substrate addition measured after 15 mins by fluorescence spectrophotometry; conditions: 0.25 h
[8] = target: T2, Amine oxidase [flavin-containing] B; test: Reversible inhibition of human recombinant MAO-B expressed in baculovirus infected insect cells using kynuramine as substrate at 0.3 uM incubated up to 60 mins prior to substrate addition measured after 15 mins by fluorescence spectrophotometry; conditions: 0.25 h
[9] = target: T2, Amine oxidase [flavin-containing] B; test: Competitive inhibition of human recombinant MAO-B expressed in baculovirus infected insect cells using kynuramine as substrate by Lineweaver-Burk plot analysis

SMILES	IC50 [1]	IC50 [2]	Ratio IC50 (Homo sapiens)	IC50 [4]	IC50 ([3]; read-out: IC50)	further results
CCOc1cccc(SCc2nc3c(c(=O)n(C)c(=O)n3C)n2C)c1	44.7 µM	18.4 µM	2			
COc1cccc(OCc2nc3c(c(=O)n(C)c(=O)n3C)n2C)c1				1960 nM		IC50 [3]: Not Active
Cn1c(=O)c2c(nc(CSc3ccc(Br)cc3)n2C)n(C)c1=O	20.8 µM	4.05 µM	5			
Cn1c(=O)c2c(nc(COc3cccc(C(F)(F)F)c3)n2C)n(C)c1=O			7	641 nM	4.59 µM	inhibition (INH) [5]: Active; inhibition (INH) [6]: Active
Cn1c(=O)c2c(nc(CCSc3cccc(Br)c3)n2C)n(C)c1=O			6	64100 nM	372 µM	
Cn1c(=O)c2c(nc(CCSc3ccc(Cl)cc3)n2C)n(C)c1=O			18	7790 nM	142 µM	
Cn1c(=O)c2c(nc(CCSc3ccc(Br)cc3)n2C)n(C)c1=O			0.9	124000 nM	117 µM	
Cn1c(=O)c2c(nc(COc3ccccc3)n2C)n(C)c1=O			4	5780 nM	21.1 µM	
Cn1c(=O)c2c(nc(COc3ccc(Br)cc3)n2C)n(C)c1=O			57	189 nM	10.7 µM	
Cn1c(=O)c2c(nc(COc3ccc(F)cc3)n2C)n(C)c1=O			10	825 nM	8.22 µM	
Cn1c(=O)c2c(nc(COc3cccc(Br)c3)n2C)n(C)c1=O			230	148 nM	34 µM	inhibition (INH) [7]: Active; inhibition (INH) [8]: Active; inhibition (INH) [9]: Active
Cn1c(=O)c2c(nc(COc3cccc(F)c3)n2C)n(C)c1=O			8	1610 nM	13.2 µM	
Cn1c(=O)c2c(nc(COc3ccc(Cl)cc3)n2C)n(C)c1=O			82	250 nM	20.4 µM	
Cc1cccc(OCc2nc3c(c(=O)n(C)c(=O)n3C)n2C)c1			15	1230 nM	18.8 µM	
Cn1c(=O)c2c(nc(COc3cccc(Cl)c3)n2C)n(C)c1=O				334 nM		IC50 [3]: Not Active
Cn1c(=O)c2c(nc(CSc3ccccc3)n2C)n(C)c1=O	66.2 µM	23.4 µM	3			
Cn1c(=O)c2c(nc(CCSc3ccccc3)n2C)n(C)c1=O			1.3	108000 nM	139 µM	

The next lines start with results.

IC50 [1]	IC50 [2]	Ratio IC50 (Homo sapiens)	IC50 [4]	IC50 ([3]; read-out: IC50)	SMILES	further results
51.8 µM	17.9 µM	3			Cc1cccc(SCc2nc3c(c(=O)n(C)c(=O)n3C)n2C)c1	
50.1 µM	22.3 µM	2			Cn1c(=O)c2c(nc(CSc3cccc(F)c3)n2C)n(C)c1=O	
			5670 nM		Cn1c(=O)c2c(nc(CCSc3cccc(Cl)c3)n2C)n(C)c1=O	IC50 [3]: Not Active
31.6 µM	6.91 µM	5			Cn1c(=O)c2c(nc(CSc3ccc(Cl)cc3)n2C)n(C)c1=O	
41.3 µM	8.42 µM	5			COc1cccc(SCc2nc3c(c(=O)n(C)c(=O)n3C)n2C)c1	
19.4 µM	6.12 µM	3			Cn1c(=O)c2c(nc(CSc3cccc(Cl)c3)n2C)n(C)c1=O	
23.8 µM	4.9 µM	5			Cn1c(=O)c2c(nc(CSc3cccc(Br)c3)n2C)n(C)c1=O	
